Experimental data published in the supplement of paper PMC10307832.

How the values were obtained:
Test in all cases: relative viability (nuclei count vs DMSO), 5 days (fraction); higher = more cells survive
[1] = compound: COc1cc2nc(N3CCCN(C)CC3)nc(NC3CCN(Cc4ccccc4)CC3)c2cc1OC + C[C@@H](Oc1cc(-c2cnn(C3CCNCC3)c2)cnc1N)c1c(Cl)ccc(F)c1Cl [Crizotinib] (partner 1 µM)
In short: (§1)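 Five library-drug doses in √10 steps were combined with a fixed anchor-drug dose, or a single drug was given alone, by pin tool to lung cancer cell lines in 1536-well plates the day after seeding. Nuclei were stained and counted after 5 days. Relative viability is the nuclei count in treated wells over that in vehicle wells, taken as the median of duplicate plates.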

[2] = compound: COc1cc2nc(N3CCCN(C)CC3)nc(NC3CCN(Cc4ccccc4)CC3)c2cc1OC + C[C@]1(O)C[C@@H](c2nc(-c3ccc4ccc(-c5ccccc5)nc4c3)c3c(N)nccn32)C1 [Linsitinib] (partner 1 µM)
In short: as §1

[3] = compound: COc1cc2nc(N3CCCN(C)CC3)nc(NC3CCN(Cc4ccccc4)CC3)c2cc1OC + CS(=O)(=O)N1CCN(Cc2cc3nc(-c4cccc5[nH]ncc45)nc(N4CCOCC4)c3s2)CC1 [Pictilisib] (partner 1 µM)
In short: as §1

[4] = compound: COc1cc2nc(N3CCCN(C)CC3)nc(NC3CCN(Cc4ccccc4)CC3)c2cc1OC + Cc1cc(Nc2cc(N3CCN(C)CC3)nc(Sc3ccc(NC(=O)C4CC4)cc3)n2)n[nH]1 [Tozasertib] (partner 0.1 µM)
In short: as §1

[5] = compound: COc1cc2nc(N3CCCN(C)CC3)nc(NC3CCN(Cc4ccccc4)CC3)c2cc1OC + COc1cccc2cc(-c3nc([C@H]4CC[C@H](C(=O)O)CC4)n4ncnc(N)c34)[nH]c12 [OSI-027] (partner 0.5 µM)
In short: as §1

Row | Cell Line | relative viability ([1]; first compound 0.2 µM) | relative viability ([1]; first compound 0.6325 µM) | relative viability ([1]; first compound 2 µM) | relative viability ([1]; first compound 6.325 µM) | relative viability ([2]; first compound 0.2 µM) | relative viability ([2]; first compound 0.6325 µM) | relative viability ([2]; first compound 2 µM) | relative viability ([2]; first compound 6.325 µM) | relative viability ([3]; first compound 0.2 µM) | relative viability ([3]; first compound 0.6325 µM) | relative viability ([3]; first compound 2 µM) | relative viability ([3]; first compound 6.325 µM) | relative viability ([4]; first compound 0.2 µM) | relative viability ([4]; first compound 0.6325 µM) | relative viability ([4]; first compound 2 µM) | relative viability ([4]; first compound 6.325 µM) | relative viability ([5]; first compound 0.2 µM) | relative viability ([5]; first compound 0.6325 µM) | relative viability ([5]; first compound 2 µM) | relative viability ([5]; first compound 6.325 µM)
1 | NCI-H1915 | 0.909 | 0.825 | 0.947 | 0.866 | 1.05 | 1.08 | 1.12 | 1.08 | 0.94 | 0.97 | 1.04 | 0.865 | 0.441 | 0.465 | 0.464 | 0.426 | 0.584 | 0.619 | 0.684 | 0.637
2 | NCI-H1944 | 1.12 | 1.07 | – | 1.17 | 1.11 | 1.23 | – | 1.13 | 0.342 | 0.365 | – | 0.336 | 0.248 | 0.277 | 0.268 | 0.28 | 0.428 | 0.465 | 0.307 | 0.398
3 | NCI-H1975 | 1.06 | 0.933 | 1.07 | 0.95 | 0.989 | 1.02 | 1.11 | 0.905 | 0.276 | 0.313 | 0.332 | 0.248 | 0.797 | 0.804 | 0.999 | 0.832 | 0.785 | 0.693 | 0.744 | 0.776
4 | NCI-H1993 | 0.796 | 0.839 | 0.882 | 0.834 | 0.728 | 0.723 | 0.676 | 0.765 | 0.709 | 0.858 | 0.894 | 0.811 | 0.583 | 0.622 | 0.604 | 0.625 | 0.534 | 0.57 | 0.529 | 0.553
5 | NCI-H2009 | 1.05 | 0.923 | 1.06 | 0.874 | 1.24 | 1.16 | 1.24 | 1.24 | 0.686 | 0.859 | 0.962 | 0.673 | 0.761 | 0.727 | 0.855 | 0.656 | 0.681 | 0.531 | 0.784 | 0.29
6 | NCI-H2023 | 0.616 | 0.592 | 0.686 | 0.156 | 0.767 | 0.643 | 0.7 | 0.405 | 0.204 | 0.279 | 0.211 | 0.0903 | 0.368 | 0.301 | 0.46 | 0.109 | 0.363 | 0.508 | 0.364 | 0.126
7 | NCI-H2085 | 0.866 | 0.842 | 0.859 | 0.776 | 0.9 | 0.917 | 0.956 | 0.84 | 0.446 | 0.522 | 0.471 | 0.404 | 0.884 | 0.895 | 0.971 | 0.612 | 0.742 | 0.788 | 0.72 | 0.584
8 | NCI-H2087 | 0.929 | 0.646 | 0.777 | 0.716 | 0.908 | 0.706 | 1.05 | 0.899 | 0.752 | 0.996 | 0.872 | 0.834 | 0.228 | 0.269 | 0.292 | 0.304 | 0.469 | 0.428 | 0.547 | 0.452
